Measured values reported in publication PMC10279920, “Single-molecule visualization of Pif1 helicase translocation on single-stranded DNA” (The Journal of Biological Chemistry, 2023).

T1: GFP-Pif1 (Saccharomyces cerevisiae, UniProt P07271, V385A)
T1 construct: N-terminal superfolder GFP fusion of nuclear isoform residues 40-859, pRSF-Duet-1, E. coli Rosetta2(DE3), Ni-NTA purified
T1 sequence (P07271 40-859 V385A): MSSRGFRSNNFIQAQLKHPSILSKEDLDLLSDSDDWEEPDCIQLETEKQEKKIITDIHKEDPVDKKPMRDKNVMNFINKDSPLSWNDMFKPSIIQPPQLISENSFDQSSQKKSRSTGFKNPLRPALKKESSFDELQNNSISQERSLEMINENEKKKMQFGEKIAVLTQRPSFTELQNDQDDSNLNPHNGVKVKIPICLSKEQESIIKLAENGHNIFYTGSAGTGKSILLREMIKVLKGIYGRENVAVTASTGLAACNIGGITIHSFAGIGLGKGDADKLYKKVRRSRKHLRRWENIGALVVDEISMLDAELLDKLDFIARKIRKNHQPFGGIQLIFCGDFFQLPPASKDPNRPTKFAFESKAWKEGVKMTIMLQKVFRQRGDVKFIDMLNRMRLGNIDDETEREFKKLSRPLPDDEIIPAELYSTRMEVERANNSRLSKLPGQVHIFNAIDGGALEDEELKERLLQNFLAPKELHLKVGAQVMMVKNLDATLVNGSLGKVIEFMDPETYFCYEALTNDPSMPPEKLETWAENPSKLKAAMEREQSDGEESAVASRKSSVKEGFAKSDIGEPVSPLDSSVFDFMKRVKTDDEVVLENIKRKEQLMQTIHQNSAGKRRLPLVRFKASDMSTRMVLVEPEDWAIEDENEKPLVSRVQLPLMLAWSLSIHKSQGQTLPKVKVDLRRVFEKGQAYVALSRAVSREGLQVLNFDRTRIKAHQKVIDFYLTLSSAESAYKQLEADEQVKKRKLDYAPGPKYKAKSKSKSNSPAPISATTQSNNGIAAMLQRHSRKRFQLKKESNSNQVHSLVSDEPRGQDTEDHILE

T2: GFP-Pif1 (Saccharomyces cerevisiae, UniProt P07271, G291P)
T2 construct: N-terminal superfolder GFP fusion of nuclear isoform residues 40-859, pRSF-Duet-1, E. coli Rosetta2(DE3), Ni-NTA purified
T2 sequence (P07271 40-859 G291P): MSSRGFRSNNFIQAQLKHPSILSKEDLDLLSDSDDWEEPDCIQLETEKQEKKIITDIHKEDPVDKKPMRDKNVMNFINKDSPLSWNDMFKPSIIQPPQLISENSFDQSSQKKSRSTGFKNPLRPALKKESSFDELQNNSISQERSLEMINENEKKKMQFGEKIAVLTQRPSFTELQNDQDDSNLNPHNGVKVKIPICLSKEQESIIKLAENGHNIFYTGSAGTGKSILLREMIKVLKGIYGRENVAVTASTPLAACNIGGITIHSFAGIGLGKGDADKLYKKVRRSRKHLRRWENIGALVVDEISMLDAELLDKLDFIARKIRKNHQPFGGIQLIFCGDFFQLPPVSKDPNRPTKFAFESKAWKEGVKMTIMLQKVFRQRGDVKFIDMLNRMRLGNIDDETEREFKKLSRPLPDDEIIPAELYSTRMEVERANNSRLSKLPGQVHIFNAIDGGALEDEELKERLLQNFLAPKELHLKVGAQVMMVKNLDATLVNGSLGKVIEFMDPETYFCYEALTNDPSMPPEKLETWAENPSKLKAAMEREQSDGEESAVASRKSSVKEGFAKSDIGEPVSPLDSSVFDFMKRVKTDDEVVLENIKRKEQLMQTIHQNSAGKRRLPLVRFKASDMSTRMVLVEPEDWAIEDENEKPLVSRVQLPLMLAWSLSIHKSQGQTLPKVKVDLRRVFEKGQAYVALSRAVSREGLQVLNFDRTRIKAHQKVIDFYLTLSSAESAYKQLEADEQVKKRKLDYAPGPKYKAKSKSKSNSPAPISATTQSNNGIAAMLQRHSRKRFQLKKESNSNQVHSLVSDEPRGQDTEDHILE

T3: GFP-Pif1 T301A (Saccharomyces cerevisiae, UniProt P07271 40-859, T301A)
T3 sequence: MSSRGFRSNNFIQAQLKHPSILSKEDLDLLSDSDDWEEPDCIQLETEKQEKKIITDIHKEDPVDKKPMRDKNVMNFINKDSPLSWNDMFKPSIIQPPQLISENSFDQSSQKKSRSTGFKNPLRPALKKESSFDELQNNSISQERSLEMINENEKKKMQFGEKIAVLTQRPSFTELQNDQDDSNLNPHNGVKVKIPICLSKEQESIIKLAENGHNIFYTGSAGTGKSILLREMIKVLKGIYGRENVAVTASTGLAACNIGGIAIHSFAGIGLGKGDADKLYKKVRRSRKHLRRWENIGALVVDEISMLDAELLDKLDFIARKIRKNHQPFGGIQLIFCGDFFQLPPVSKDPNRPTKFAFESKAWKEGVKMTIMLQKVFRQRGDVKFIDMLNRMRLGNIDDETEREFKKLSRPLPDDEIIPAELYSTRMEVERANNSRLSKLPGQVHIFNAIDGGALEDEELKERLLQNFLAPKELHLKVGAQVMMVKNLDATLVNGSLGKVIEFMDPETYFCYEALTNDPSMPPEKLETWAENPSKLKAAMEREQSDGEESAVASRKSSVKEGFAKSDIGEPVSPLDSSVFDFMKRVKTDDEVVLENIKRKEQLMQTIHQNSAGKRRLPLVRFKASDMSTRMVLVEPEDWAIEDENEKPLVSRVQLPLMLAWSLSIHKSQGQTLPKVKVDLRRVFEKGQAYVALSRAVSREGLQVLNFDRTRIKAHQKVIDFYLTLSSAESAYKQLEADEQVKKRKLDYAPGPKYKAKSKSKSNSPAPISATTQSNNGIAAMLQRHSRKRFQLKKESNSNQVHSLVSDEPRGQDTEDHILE


Assays:
GFP-Pif1 [1] = biological target: T1, GFP-Pif1; experiment: ATP hydrolysis, [γ-32P]-ATP TLC, Michaelis-Menten fit; assay type: biochemical; conditions: M13 ssDNA 1.5 μM nt, 10 nM Pif1, 5 mM MgCl2, 60 mM KCl, pH 7.5, 30 °C, no RPA; labelled compound as tracer
GFP-Pif1 [2] = biological target: T2, GFP-Pif1; experiment: as above; assay type: biochemical; conditions: M13 ssDNA 1.5 μM nt, 10 nM Pif1, 5 mM MgCl2, 60 mM KCl, pH 7.5, 30 °C, no RPA; labelled compound as tracer
GFP-Pif1 T301A = biological target: T3, GFP-Pif1 T301A; experiment: EMSA; no ATP, 5 mM Mg2+; up to 50 nM; 35 mM Tris-HCl pH 7.5, 1 mM DTT, 5 mM MgCl2, 60 mM KCl, 0.1 mg/ml BSA, no ATP, 30 min at 30 C; 5 nM ssDNA; conditions: protein: recombinant; tags: N-terminal superfolder GFP; Ni-NTA purified; label: 5' Alexa647

Km (GFP-Pif1 [1]) [mM] | Km (GFP-Pif1 [2]) [µM] | Molecule | binding result (GFP-Pif1 T301A)
1.28 ± 0.54 | 760 ± 290 | Nc1ncnc2c1ncn2[C@@H]1O[C@H](COP(=O)(O)OP(=O)(O)OP(=O)(O)O)[C@@H](O)[C@H]1O [ATP] | 
 |  | GCTAGCAGTAGCCAGCATCGAACGTACGATCGGTAACGTA (ssDNA) [40-nt ssDNA] | no binding
